Experiments:
Type in all cases: physicochemical
[1] = Stability in Hepes by UV-visible absorption; details: Hepes 50 mM, pH 7.4, 0.2% DMSO; 10 μM, 37 °C; 72 h
Description: (§1) Therefore, in the following experiments, they were first dissolved in DMSO and further diluted in an excess of buffer. […] Logically, 1,4,7,10-tetramethyl-1,4,7,10-tetraazacyclododecane (4ME) and GA (compound structure was shown in Fig. S1) are considered as the precursor of 4GA and 2GA and therefore used as a comparative study to confirm whether the ancillary ligand had any effect on aggregation.
Figure S8. The stability of 4GA (A) and 2GA (B) in HEPES (50 mM, pH 7.4, 0.2% DMSO) verified by UV-vis absorption spectroscopy. All sample concentrations were 10 μM and kept at 37℃ in atmosphere.

[2] = UV-visible titration and Job's plot, coordination to Cu2+; details: for Job's plot isosbestic point, mol fraction of Cu2+: 5 mM total in DMSO; for coordination stoichiometry with Cu2+: Job's method, 5 mM in DMSO
Description: The UV–visible spectrum was used to reveal their coordination properties to Cu^2+. […] The increased absorption at 481 nm and 475 nm (Fig. 3, A and B, inset) definitely indicated the complexation of 4GA–Cu^2+ and 2GA–Cu^2+, respectively. The coordination stoichiometry of 4GA and 2GA with Cu^2+ was determined by Job’s plot analysis (Fig. 3, C and D). […] However, their macrocyclic precursors (cyclen and N-methylated cyclen 2ME]) were evaluated to coordinate with Cu^2+ by 1:1 mode (Fig. S9). The different coordination mode with Cu^2+ was supposed to be the synergistic coordination effects of galloyl side arms, in addition to the central azacrown structure.
The chelating studies were performed on Hitachi U-2900 UV–visible spectrophotometer with a 10-mm quartz cell. For titration experiment, the UV absorption of test compound (1 mM in DMSO) was recorded in the presence of CuCl2 (0–6 equivalents of Cu^2+ for 4GA, 0–5 equivalents of Cu^2+ for 2GA, respectively). For Job’s method, a series of solution was prepared in which the total concentration of compound and Cu^2+ was fixed (5 mM in DMSO), but their proportions of ether component varied between 0% and 100%, and the UV spectra were analyzed to determine the ratio of ligand–Cu^2+.
Figure S9. The chemical structure of cyclen derivates (upper), and the determination of the stoichiometry of complex (A) cyclen-Cu^2+, (B) 1ME-Cu^2+, (C) 2ME-Cu^2+, (D) 3ME-Cu^2+, (E) 4ME-Cu^2+ (5 mM) by Job’s method.

Solubility = details: for solubility in polar organic solvent: DMSO
From the text: as §1

Compound	stability in buffer [1]	Job's plot isosbestic point, mol fraction of Cu2+ [2]	coordination stoichiometry with Cu2+ [2]	solubility in water (Solubility)	solubility in polar organic solvent (Solubility)
CN1CCN(C(=O)c2cc(O)c(O)c(O)c2)CCN(C)CCN(C(=O)c2cc(O)c(O)c(O)c2)CC1 [2GA, (4,10-dimethyl-1,4,7,10-tetraazacyclododecane-1,7-diyl)bis((3,4,5-trihydroxyphenyl)methanone)]	remain stable at 72 h	0.7 mol fraction	can bind with two Cu^2+ ions	slightly soluble in water	soluble in polar organic solvent such as dimethyl sulfoxide (DMSO)
O=C(c1cc(O)c(O)c(O)c1)N1CCN(C(=O)c2cc(O)c(O)c(O)c2)CCN(C(=O)c2cc(O)c(O)c(O)c2)CCN(C(=O)c2cc(O)c(O)c(O)c2)CC1 [4GA, (1,4,7,10-tetraazacyclododecane-1,4,7,10-tetrayl)tetrakis((3,4,5-trihydroxyphenyl)methanone)]	remain stable at 72 h	0.7 mol fraction	can bind with two Cu^2+ ions	slightly soluble in water	soluble in polar organic solvent such as dimethyl sulfoxide (DMSO)
